In patent US20040115209A1, “Compound targeted for specific cells with reduced systemic toxicity” (priority 2000, published 2004):

Experiments:
[1] = test system: KB cells; assay: MTT cytotoxicity of Doxorubicin-mAb α-IR3, KB cells; assay type: cell-based; details: Homo sapiens, 72 h, 3 days, n = 3
Experimental: (§1) Competition of Doxorubicin-α-IR3 cytotoxicity was done by adding a 10-fold molar excess of α-IR3 antibody. The survival profile of the cells was measured with the MTT assay 72 hr after plating.

[2] = test system: KB-V cells; assay: MTT cytotoxicity of Doxorubicin-mAb α-IR3, KB-V cells (p-glycoprotein resistant); assay type: cell-based, human
Experimental: as §1

[3] = test system: NWT-b3 cells; details: mouse, 72 h
Experimental: as §1

[4] = test system: NIH 3T3 cells; details: mouse fibroblasts
Experimental: as §1

[5] = test system: B104 cells; assay: Kinetics of paclitaxel cytotoxicity: single bolus versus constant exposure (MTT); assay type: cell-based, rat
Experimental: It is likely that a single bolus of paclitaxel•antibody conjugate would be delivered because affected cells would not synthesize additional target receptor. Therefore we tested whether a single bolus of paclitaxel would be an effective cytotoxic agent. Cells were exposed to the indicated concentration of paclitaxel for 30 minutes at 4° C. Then, cells were plated in a 96-well plate (Falcon); this group represents treatment with paclitaxel present in a constant manner. The remaining cells were washed free of excess paclitaxel prior to plating; this group represents a single exposure to paclitaxel. […] Optical density readings of MTT were done in an EIA Plate Reader model 2550 (Bio-Rad) at 595 nm.

[6] = test system: B104 cells; assay: MTT cytotoxicity of paclitaxel•MC192, B104 cells; assay type: cell-based, rat; details: addition of 40 nM MC192
Experimental: (§2) The survival profile of the cells was measured with the MTT assay 72 hr after plating.

[7] = test system: NIH-3T3 cells; assay: MTT cytotoxicity of paclitaxel•MC192, cells that do not express p75; assay type: cell-based, mouse
Experimental: as §2

[8] = test system: B104 cells; assay type: in vivo; details: ˜3.5 nM
Experimental: Nude mice (seven weeks old, female) were used to test the effect of paclitaxel or conjugates in tumor progression. Single cell suspensions of B104 cells (10^5/mouse) were injected subcutaneously in the left flank near the rib cage. Tumor growth was monitored daily. […] Mice were then randomized and treatments were initiated in four groups (n=5 in each group). […] All treatments were done by a total of five injections every two days (for a total of ten days). All injections were done IP on the right side to prevent direct contact of the agents to the tumor growing subcutaneously, and to assure that systemic circulation of the drugs was achieved. Measurements of tumor volume were taken using calipers, every day post treatment for a total of 25 days.
The timeline was: day −14 injection of tumors subcutaneously, days −10, −8, −6, −4, −2 injection of drugs or controls, days 0-25 measurement of tumor growth daily.
Statistical significance of differences in tumor growth among the different treatment groups was determined by the student t test using SYSTAT 7.0 software. P value is significant when it is <0.05.

[9] = test system: 4-3.6 cells; assay: In vitro survival assay in serum free media (MTT), 4-3.6 cells; assay type: cell-based, rat; details: ˜48 hrs, zVAD 20 nM, conjugate 20 nM VAD equivalent, 1 nM 5C3
Experimental: 4-3.6 cells are placed in serum free media (SFM, PFHM-II, GIBCO, Toronto), where they undergo apoptosis (serum-withdrawal model).
Cells were then cultured for ˜48 hrs. Cell growth/survival was calculated relative to 5% serum (standardized to 100%).

## COc1cccc2c1C(=O)c1c(O)c3c(c(O)c1C2=O)C[C@@](O)(C(=O)CO)C[C@@H]3O[C@H]1C[C@H](N)[C@H](O)[C@H](C)O1 [Doxorubicin]
[1]
  IC50: 0.06 ± 0.002 µM
[2]; Homo sapiens, KBV, 72 h, KB-V cells, 3 days, MTT, n = 3
  IC50: > 0.32 µM
[2]; KB-V compared to sensitive KB cells, with or without Verapamil
  cytotoxicity on multidrug resistant cells: inactive on KB-V cells unless Verapamil was added
[3]
  cytotoxicity under ligand competition: same cytotoxicity whether excess of mlg or α-IR3 was present or not
[4]
  cytotoxicity on cells that do not express IGF-IR: dose-dependent cytotoxicity

## CC(=O)O[C@H]1C(=O)[C@@]2(C)[C@H]([C@H](OC(=O)c3ccccc3)[C@]3(O)C[C@H](OC(=O)[C@H](O)[C@@H](NC(=O)c4ccccc4)c4ccccc4)C(C)=C1C3(C)C)[C@]1(OC(C)=O)CO[C@@H]1C[C@@H]2O [paclitaxel]
[5]; 20 nM, after 72 and 96 hours of culture
  cytotoxic effect of a single exposure versus constant exposure: significantly less effective than constant exposure
[5]; 30 minutes at 4° C. exposure, several concentrations, MTT 48, 72, 96 hr
  cytotoxic effect, single exposure versus constant presence: generally the same whether the drug is present in the culture throughout or after a single exposure
[6]
  cytotoxicity under ligand competition: same cytotoxicity whether or not 40 nM of mouse IgG or 40 nM of MC192 antibody were added
[7]
  cytotoxicity on cells that do not express p75: dose-dependent cytotoxicity
[8]
  efficacy in vivo at the dose effective for the conjugate: not effective at this dose

## benzoic acid-Valine-Alanine-Aspartic acid-O-methyl-fluoromethylketone peptide [zVAD]
[9]
  4-3.6 Cell Survival (MTT, % of serum control): −2 ± 3 % of serum control
